Read-outs that look alike come from different tables or passages of the source. No end group written: not given here.
Columns and labels:
PINK1 = molecular target: T1, PINK1 (Tribolium castaneum, UniProt D6WMX4); assay: biochemical; assay type: biochemical; conditions: for PINK1 agonistic rate: 100 μM
T1 construct: made in house
T1 sequence (D6WMX4 6-570): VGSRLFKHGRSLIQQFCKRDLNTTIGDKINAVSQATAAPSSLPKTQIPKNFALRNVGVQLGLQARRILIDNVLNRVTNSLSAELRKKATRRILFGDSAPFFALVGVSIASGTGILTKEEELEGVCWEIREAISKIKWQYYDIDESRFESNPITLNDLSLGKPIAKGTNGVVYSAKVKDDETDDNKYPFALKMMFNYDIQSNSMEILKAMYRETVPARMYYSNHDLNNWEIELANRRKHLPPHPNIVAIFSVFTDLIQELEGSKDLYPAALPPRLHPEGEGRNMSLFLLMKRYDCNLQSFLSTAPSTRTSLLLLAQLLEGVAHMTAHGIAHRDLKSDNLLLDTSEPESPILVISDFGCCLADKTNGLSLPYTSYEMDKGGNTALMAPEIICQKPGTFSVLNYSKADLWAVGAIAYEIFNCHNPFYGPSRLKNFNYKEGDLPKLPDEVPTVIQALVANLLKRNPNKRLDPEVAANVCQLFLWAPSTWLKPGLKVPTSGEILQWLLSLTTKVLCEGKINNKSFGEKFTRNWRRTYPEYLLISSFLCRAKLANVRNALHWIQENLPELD
Procedure: The earthworms (Lumbricus terrestris) were purchased from Beijing Tongrentang Co., Ltd. (Chengdu, China). They were dried by the supplier through sun-drying and stored at 4 °C. The shelf life is one year. Rasagiline was purchased from Aladdin Biochemical Technology Co., Ltd. (Shanghai, China). Resveratrol was purchased from Pusi Biotechnology Co., Ltd. (Chengdu, China). The SH-SY5Y cells were obtained from the National Collection of Authenticated Cell Cultures (Shanghai, China). […] Dulbecco’s modified Eagle’s medium/Ham’s F-12 (DMEM/F12), fetal bovine serum (FBS), and phosphate-buffered saline (PBS) were purchased from Biological Industries (Kibbutz Beit HaEmek, Israel). Fluorescein diacetate (FDA), propidium iodide (PI) staining and mitochondrial membrane potential test kit (JC-1) were purchased from Beijing Solarbio Science & Technology Co., Ltd. (Beijing, China). Cell Counting Kit-8 (CCK-8) was purchased from Bimake Co., Ltd. (Shanghai, China). PrimeScript RT reagent kit and PerfectStart Green PCR Master Mix were purchased from TransGen Biotech (Beijing, China). […] The Kinase-Lumi™ Luminescent Kinase Assay Kit and ATP Assay Kit were purchased from Beyotime Biotechnology Co., Ltd. (Wuhan, China). The Insect dopamine (DA) ELISA Kit was purchased from Jiangsu Meimian Industrial Co., Ltd. (Yancheng, Jiangsu, China). HPLC-grade methanol was supplied by XLJ (Yunnan, China). Ultrapure water used in the experiment was prepared using a UP water purification (18.25 MΩ) system (Chengdu, China). Unless otherwise specified, chemicals and solvents were purchased from Kelong Chemical Reagents Factory (Chengdu, China).
The PINK1 activity assay was conducted with certain modifications based on the described by. Ubiquitin is a potent substrate for PINK1, which catalyzes the phosphorylation of ubiquitin while consuming ATP [33]. During the reaction, the consumption of ATP is associated with PINK1 activity. […] The enzymatic reaction was conducted on a white 96-well plate, with all samples dissolved in a buffer solution containing 50 mM Tris-HCl (pH = 7.5), 0.1 mM EDTA, 10 mM MgCl2, and 4% 2-hydroxy-1-ethanethiol. Subsequently, 10 μL of peptide sample, 10 μL of PINK1 (6.8 μM), 10 μL of ubiquitin (0.002 pg/mL), and 20 μL of ATP (10 μM) were added to the plate for incubation at a temperature of 25 °C for a duration of ten minutes. In addition, the blank control group replaces the peptide with a buffer solution. The resveratrol was employed as a positive control. The amount of ATP consumed was detected using the Kinase-Lumi™ Luminescent Kinase Assay Kit. The PINK1 agonistic rate was calculated by the following equation:(1) PINK1 agonistic rate (%)=(1−A−B/C−D)×100% where A represents the absorbance of the sample group consisting of the sample, PINK1, ubiquitin, and ATP; B represents the absorbance of the sample control group consisting of the sample, PINK1, and ubiquitin; C represents the absorbance of the control group consisting of PINK1, ubiquitin, and ATP; D represents the absorbance of the blank control group consisting of PINK1 and ubiquitin. The EC50 of each peptide was calculated using GraphPad Prism, version 10.0.2 software.

PINK1^B9 flies [1] = assay: Lifespan of PINK1^B9 flies; assay type: in vivo, Drosophila; conditions: 1 mM in medium, male flies
Procedure: The flies were cultured on a conventional fly medium under controlled conditions of 25 ± 1 °C and 60% relative humidity. The traditional medium for cultivating flies was prepared by boiling 90 g of yeast, 240 g of corn flour, 32 g of agar, 189 g of glucose, and 98 g of sucrose, as well as adding a preservative solution consisting of 25 mL of a 10% methyl-4-hydroxybenzoate in distilled water to make a final volume of 3.5 L. The experimental medium was prepared by supplementing formula 4–24 instant Drosophila medium (Carolina Biological Supply Company, Burlington, NC, USA) with a concentration of 0.1 mM peptide. Male individuals of both wild-type (WT) and PINK1^B9 flies were collected for subsequent experiments.
The newly hatched male WT flies and male PINK1^B9 mutants were collected simultaneously, followed by their division into four groups with 4 bottles per group and 40 flies per bottle. The first group was provided with WT flies and fed with formula 4–24 instant drosophila medium. The second group consisted of PINK1^B9 flies and was also fed with formula 4–24 instant drosophila medium. The third group comprised PINK1^B9 flies and received formula 4–24 instant drosophila medium supplemented with 0.1 mM peptide. […] Fresh medium was replaced every 2–3 days, while the number of flies was recorded daily.

PINK1^B9 flies [2] = tested on: PINK1^B9 flies; parameters: method as in PMID 30248358; conditions: cited from earlier work
[3] = tested on: MPP^+-damaged SH-SY5Y cells; assay: CCK-8 viability, neuroprotection of MPP+-damaged SH-SY5Y cells; assay type: cell-based, human; conditions: 100 μM
Procedure: The SH-SY5Y human neuroblastoma cell line is extensively employed as a prominent cellular model for PD [31]. The neuroprotective effect of earthworm peptides against the MPP^+-damaged SH-SHY5Y cell model was evaluated using the CCK-8 method. First, the SH-SHY5Y cells were cultured in DMEM/F12 medium supplemented with 10% fetal bovine serum (FBS) and 1% penicillin–streptomycin, and they were maintained at a temperature of 37 °C with a CO2 concentration of 5% in a humidified atmosphere. The SH-SHY5Y cells were seeded into 96-well plates at a density of 1 × 10^4 cells per well, followed by incubation at 37 °C for 24 h. Subsequently, the initial medium was carefully aspirated. The peptide samples were dissolved in DMSO to prepare a high-concentration stock solution and then diluted to the required concentration (10, 25, 50, 100, and 150 μM), prepared using a medium, where they were subsequently introduced into the well and incubated at 37 °C for a duration of 2 h. Then, the cells were treated with MPP^+ (2 mM) per well for an additional 24 h. […] Following the completion of the experiment, the 96-well plate was extracted, and the absorbance was measured at 450nm by the […] GO spectrophotometric plate reader (Thermo Scientific, Waltham, MA, USA). The data were analyzed using GraphPad Prism, version 6.0.

SH-SY5Y cells = conditions: cited from earlier work
From the text: (§1) Earthworm is used in traditional Chinese medicine as an animal-derived remedy. Its protein content and amino acid composition are better than those of fish, cow milk, and soybean meal. […] Moreover, its essential amino acid utilization rate is higher in the body and is more readily assimilated by the human system. Therefore, it is used as a supplement in animal feed and human food. Earthworm has been recorded in the Chinese medical classics of “ ...

inflammatory enzymes = conditions: in vitro and in vivo; cited from earlier work
From the text: as §1

[4] = molecular target: PTEN-induced putative kinase 1 (PINK1) (UniProt D6WMX4)
[5] = ubiquitin substrate, 10 μM ATP, pH 7.5 Tris-HCl, 25 °C, 10 min, residual ATP luminescence, mean ± SD (n = 3)

With Oc1ccc(/C=C/c2cc(O)cc(O)c2)cc1 [Resveratrol, resveratrol] the PINK1 agonistic rate (PINK1; [5]) was 91.45 ± 0.34%, the EC50 (PINK1; ubiquitin substrate, 10 μM ATP, pH 7.5 Tris-HCl, 25 °C, 10 min, residual ATP luminescence, mean ± SD (n = 3), read-out: EC50, PINK1 agonistic activity) was 13.8 ± 0.58 µM and the “lifespan extension of PINK1^B9 flies” value (PINK1^B9 flies [1]) was 23.33%. The “lifespan of PINK1^B9 flies (in words)” value (PINK1^B9 flies [2]; 0.2 mM resveratrol) was “no significant effect” and the “lifespan of PINK1^B9 flies (in words)” value (PINK1^B9 flies [2]; 1 mM resveratrol) was “effective in extending the lifespan”.

“AGFAGDDAPR [peptide identified from earthworm (Lumbricus terrestris), synthesized by solid phase]” gave a PINK1 agonistic rate (PINK1; [5]) of 33.45 ± 0.45%.

In the case of AVFPSIVGR, the “cell viability (restored to)” value ([3]; 2 h pre-incubation, then 2 mM MPP^+ 24 h, 37 °C, CCK-8, absorbance 450 nm, n = 3) is reported as 68.77%, the EC50 (PINK1) is reported as 88.5 ± 0.97 µM and the PINK1 agonistic rate (PINK1; [5]) is reported as 50.35 ± 0.72%.

For GYSFTTTAER, the “cell viability (restored to)” value ([3]; 2 h) was 70.08%, the EC50 (PINK1) was 76.8 ± 1.3 µM and the PINK1 agonistic rate (PINK1; [5]) was 52.46 ± 0.96%.

For “ILLIILI [peptide identified from earthworm (Lumbricus terrestris), synthesized by solid phase]”, the PINK1 agonistic rate (PINK1; [5]) was 17.16 ± 0.55%.

For QLICWRRFR [LumA5, lumbricusin analog 5], the “viability of SH-SY5Y cells” value (SH-SY5Y cells) is listed as “improved” and the “expression of lip-induced inflammatory enzymes” value (inflammatory enzymes) is listed as “significantly reduce”.

In the case of “RNRRWCIDQQA [lumbricusin, antimicrobial peptide derived from earthworm]”, the “apoptosis and decreased viability induced by MPP^+” value (SH-SY5Y cells; SH-SY5Y) is listed as “inhibits” and the SH-SY5Y cell proliferation (SH-SY5Y cells) is listed as “promotes”.

ILLIILI gave a PINK1 agonistic rate (%) at 100 μM peptide; ATP consumed by purified PINK1 with ubiquitin as substrate (Kinase-Lumi luminescent kinase assay) [4] of 17.2%.

AGFAGDDAPR gave a PINK1 agonistic rate (%) at 100 μM peptide; ATP consumed by purified PINK1 with ubiquitin as substrate (Kinase-Lumi luminescent kinase assay) [4] of 33.5%.

For AVFPSIVGR, the EC50 of PINK1 agonistic activity; ATP consumed by purified PINK1 with ubiquitin as substrate (Kinase-Lumi luminescent kinase assay) [4] was 88.5 µM and the PINK1 agonistic rate (%) at 100 μM peptide; ATP consumed by purified PINK1 with ubiquitin as substrate (Kinase-Lumi luminescent kinase assay) [4] was 50.4%.

In the case of GYSFTTTAER, the EC50 of PINK1 agonistic activity; ATP consumed by purified PINK1 with ubiquitin as substrate (Kinase-Lumi luminescent kinase assay) [4] is reported as 76.8 µM and the PINK1 agonistic rate (%) at 100 μM peptide; ATP consumed by purified PINK1 with ubiquitin as substrate (Kinase-Lumi luminescent kinase assay) [4] is reported as 52.5%.

Reference: publication PMC12074337, “Isolation and Characterization of Earthworm Peptides with Neuroprotective Effects in Parkinson’s Disease Models” (Molecules, 2025)
